From patent US6420532B1, “Method of obtaining compositions comprising Y2 specific compounds” (Synaptic Pharmaceutical Corporation, priority 1994, dated 2002)

Legend:
[1] = test system: PYY-preferring receptor; details: rat small intestine; cited from earlier work
[2] = target: T1, human Y2 receptor (Homo sapiens, UniProt P49146); details: stably transfected NIH-3T3 cells
T1 sequence (P49146 1-381): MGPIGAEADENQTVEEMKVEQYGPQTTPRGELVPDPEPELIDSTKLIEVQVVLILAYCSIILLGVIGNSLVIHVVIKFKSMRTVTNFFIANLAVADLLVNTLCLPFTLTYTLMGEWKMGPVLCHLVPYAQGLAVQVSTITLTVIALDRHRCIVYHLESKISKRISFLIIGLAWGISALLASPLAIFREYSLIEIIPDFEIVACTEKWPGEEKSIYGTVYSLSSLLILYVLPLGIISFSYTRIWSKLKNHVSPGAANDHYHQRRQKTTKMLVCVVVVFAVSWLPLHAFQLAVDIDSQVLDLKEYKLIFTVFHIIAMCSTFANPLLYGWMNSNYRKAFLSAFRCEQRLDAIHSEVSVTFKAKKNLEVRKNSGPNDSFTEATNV

[3] = target: T1, human Y2 receptor; test: Inhibition of forskolin-stimulated cAMP accumulation (radioimmunoassay), stably transfected 293 cells; format: cell-based; parameters: expressed in transfected cells; details: maximum inhibition of cAMP accumulation relative to that produced by human NPY

Row | Substance | higher affinity for PYY than for NPY [1] | decrease of forskolin-stimulated cAMP accumulation [2] | Function Emax [3]
1 | PYY: PYY, species not stated (Table 2, b7) [peptide YY] | 5-10 fold |  | 
2 | Neuropeptide Y [NPY, human] |  | 50% | 100%
